Ends that are not written are not given here.
How the values were obtained:
bacteria [1] = assay: Activity in DMEM and RPMI media (lysis of bacteria); assay type: cell-based; design: key to Active in DMEM: YES: Active in DMEM; a blank means no activity; conditions: Table 2; tested in DMEM and RPMI
Procedure: (§1) The CFU assay is the “gold standard” for evaluating antibiotics. Briefly, bacteria are grown overnight in rich medium, such as LB, and then diluted and grown in log phase for 2-4 hours. Cultures are set up as above, with the initial culture media being 10 mM phosphate buffer/0.03% LB; DMEM or RPMI; or DMEM or RPMI plus 10% serum (fetal calf, human, or mouse). After various periods of time, but generally 3 hours or less, aliquots are removed, diluted in LB at various dilutions, and plated on LB agar plates. Plates are incubated overnight at 37° C. and counted on an automatic colony counter.
In the column “Active in DMEM”, a blank means no activity. MAP stands for multiple antigenic peptide, where a number of identical peptide chains are synthesized and joined to a common core (like a dendrimer).
The peptides listed in Table 2 were tested in DMEM and RPMI, media that approximate blood and tissue conditions in vivo and those that were active under these conditions are listed in the last column (active in DMEM). […] No peptides that were all L-isomer peptides lysed bacteria in DMEM supplemented with serum.
The hydrophobic moment is a measure of amphipathicity and indicates how well the hydrophobic residues fall on one side of the helix while the hydrophilic residues fall on the opposite side is shown in column 7. This was determined using the Membrane Explorer Program (http://blanco.biomol.uci.edu/mpex/). A high number indicates a high hydrophobic moment. Column 8 again (like Table 2) indicates which of these peptides is active in DMEM.

bacteria [2] = assay: Activity in serum containing media (10% FCS in DMEM or RPMI); assay type: cell-based; conditions: for active in serum containing media: 10% FCS in DMEM or RPMI
Procedure: as §1
Tests were conducted in low salt concentrations so that active peptide candidates could be identified more readily. It is important for in vivo applications that the present antimicrobial peptides be active in physiological salt concentrations (150 mM) as well as in the presence of other tissue components, such as blood plasma (serum). Serum may contain proteases that destroy peptides; the use of D-amino acids can improve protease resistance. See G12.21. […] Also active were G11.6, G11.26, G11.29, G11.30, G11.34, G11.35, G12.11, G12.19, G12.20 and G12.21. […]

Salmonella = assay type: cell-based, S. typhimurium; conditions: pH 7.2
Summary of the method: (§2)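 Peptides were diluted in 10 mM phosphate buffer, pH 7.2 with 0.03% LB and incubated with bacteria (~5×10^6 CFU/ml) for 3 h at 37 °C in microtiter wells. LB was then added, growth continued overnight, and OD 600 nm was read. MIC is the lowest concentration with no growth; IC50 gives 50% growth versus medium.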

E. coli DH5a = assay type: cell-based; conditions: DH5a, pH 7.2
Summary of the method: as §2

B. cereus = assay type: cell-based; conditions: pH 7.2
Summary of the method: as §2

bacterial strains = assay: organism not typed; assay type: cell-based; conditions: CFU Assay in 10% FCS/DMEM (3 hrs)
Procedure: (§3) Three preferred peptides G11.46, G12.21 and G14.15, discussed above, were further tested for antimicrobial efficacy under various conditions using the 10% FCS/DMEM assay as described under CFU assay. The incubation times with the bacteria and peptide was three hours, at which time the bacteria were diluted and plated on agar. […] The MIC for each compound is highlighted.
Table 9 below repeats some data presented above in Tables 6, 7, and 8.

Salmonella typhimurium = assay: CFU assay in 10% FCS/DMEM; assay type: cell-based; conditions: 3 hrs
Procedure: as §1, §3

E. coli = assay: CFU assay in 10% FCS/DMEM; assay type: cell-based; conditions: 3 hrs
Procedure: as §1, §3

Staphylococcus aureus = assay: CFU assay in 10% FCS/DMEM; assay type: cell-based; conditions: 3 hrs
Procedure: as §1, §3

## RDVSRRFMRRGSRDVSRRFMRRGSRDVSRRFMRR [Peptide G11.26]
Bacteria [1]
  Active in DMEM: YES
Bacteria [2]
  active in serum containing media: active
Salmonella
  IC50: 210 nM
  Salmonella MIC: 0.35 µM
E. coli DH5a
  E. coli DH5a MIC: 0.7 µM
  IC50: 400 nM
B. cereus
  B. cereus MIC: 0.35 µM
  IC50: 210 nM

## RRVSRPPMRRYRSRRPRRLV [Peptide G12.20]
Bacteria [1]
  Active in DMEM: YES
Bacteria [2]
  active in serum containing media: active
Salmonella
  IC50: 420 nM
  Salmonella MIC: 1.4 µM
E. coli DH5a
  E. coli DH5a MIC: 0.73 µM
  IC50: 230 nM
B. cereus
  B. cereus MIC: 0.35 µM
  IC50: 210 nM

## RRVSRPPPRRYRSRRPRRLV [Peptide G12.19]
Bacteria [1]
  Active in DMEM: YES
Bacteria [2]
  active in serum containing media: active
Salmonella
  IC50: 730 nM
  Salmonella MIC: 1.38 µM
E. coli DH5a
  E. coli DH5a MIC: 0.75 µM
  IC50: 220 nM
B. cereus
  B. cereus MIC: 0.35 µM
  IC50: 210 nM

## RRVSRRFMRRYRSRRPRRLV [Peptide G12.11]
Bacteria [1]
  Active in DMEM: YES
Bacteria [2]
  active in serum containing media: active
Salmonella
  IC50: 410 nM
  Salmonella MIC: 0.65 µM
E. coli DH5a
  E. coli DH5a MIC: 0.75 µM
  IC50: 210 nM
B. cereus
  B. cereus MIC: 0.35 µM
  IC50: 210 nM

## RRVSRRPMRRYRSRRPRRLV [Peptide G12.12]
Bacteria [1]
  Active in DMEM: YES
Bacteria [2]
  active in physiological salt concentrations (150 mM) and presence of serum: active in such conditions
Salmonella
  IC50: 210 nM
  Salmonella MIC: 0.35 µM
E. coli DH5a
  E. coli DH5a MIC: 0.35 µM
  IC50: 210 nM
B. cereus
  B. cereus MIC: 0.35 µM
  IC50: 210 nM

## gentamicin [reference compound]
Bacterial strains; E. Coli (ATCC#25922)
  MIC: 1.25 µM
Bacterial strains; Salmonella (SL1344)
  MIC: 2.5 to 5 µM
Bacterial strains; Staph A (ATCC#29213)
  MIC: >1.25 µM
Salmonella typhimurium; 0.04 μM
  % Survival (CFU Assay): 119.73%
Salmonella typhimurium; 0.08 μM
  % Survival (CFU Assay): 103.72%
Salmonella typhimurium; 0.16 μM
  % Survival (CFU Assay): 105.73%
Salmonella typhimurium; 0.32 μM
  % Survival (CFU Assay): 93.27%
Salmonella typhimurium; 0.63 μM
  % Survival (CFU Assay): 70.15%
Salmonella typhimurium; >1.25 μM
  % Survival (CFU Assay): 29.7%
E. coli; 0.08 μM
  % Survival (CFU Assay): 117.89%
E. coli; 0.16 μM
  % Survival (CFU Assay): 110.6%
E. coli; 0.32 μM
  % Survival (CFU Assay): 87.76%
E. coli; 0.63 μM
  % Survival (CFU Assay): 17.05%
E. coli; 1.25 μM
  % Survival (CFU Assay): 0.21%
E. coli; 2.5 μM
  % Survival (CFU Assay): 0.052%
Staphylococcus aureus; 0.04 μM
  % Survival (CFU Assay): 90.73%
Staphylococcus aureus; 0.08 μM
  % Survival (CFU Assay): 78.94%
Staphylococcus aureus; 0.16 μM
  % Survival (CFU Assay): 59.49%
Staphylococcus aureus; 0.32 μM
  % Survival (CFU Assay): 37%
Staphylococcus aureus; 0.63 μM
  % Survival (CFU Assay): 28.51%
Staphylococcus aureus; >1.25 μM
  % Survival (CFU Assay): 17.1%

Reference: patent US7745390B2, “Antimicrobial peptides” (priority 2005, dated 2010)
